Patent US20250195502A1, “APPLICATION OF TETRACYCLIC COMPOUND IN TREATMENT OF TUMORS” (SHANGHAI SHIJIANG BIOTECHNOLOGY CO., LTD, priority 2022, published 2025)
Read-outs that look alike come from different tables or passages of the source.

Tests used:
Format in all cases: cell-based
[1] = system: NCI-H82 (human small cell lung cancer cell); experiment: Cell viability assay (Promega CellTiter-Glo), inhibitory effect on NCI-H82; conditions: 72 h, 3 days of culture
Method: (§1) The inhibitory effect of the compounds prepared in the Examples of the present invention on various tumor cell lines was detected using cell viability assay reagent.
(§2) Cell viability was detected using the Promega CellTiter-Glo kit, cell viability was determined by directly measuring intracellular ATP content. In the experiment, the ICso value of the compounds prepared in the Examples of the present invention on various tumor cell lines was detected.
(§3) Each tumor cell was cultured in relevant medium. After cell passage, the gradient diluted compounds prepared in the Examples of the present invention was added. After 3 days of culture, the relevant IC50 (50% inhibiting concentration) was measured. The name, source and culture conditions of each tumor cell line were as follows:
Cell line NCI-H82 (ATCC, No. HTB-175) was cultured in 10% fetal bovine serum-containing RPMI1640 medium (+P/S).

[2] = system: SW48 (human colon adenocarcinoma cell); experiment: Cell viability assay (Promega CellTiter-Glo), inhibitory effect on SW48; conditions: 72 h, 3 days of culture
Method: as §1, §2, §3
Cell line SW48 (ATCC, No. CCL-231) was cultured in 10% fetal bovine serum-containing Leibovitz's L-15 medium (+P/S).

[3] = system: G-401 (human renal carcinoma Wilms cell); experiment: Cell viability assay (Promega CellTiter-Glo), inhibitory effect on G-401; conditions: 72 h, 3 days of culture
Method: as §1, §2, §3
Cell line G-401 (ATCC, No. CRL-1441) was cultured in 10% fetal bovine serum-containing McCoy's 5a medium (+P/S).

[4] = system: MDA-MB-453 (breast cancer cell); experiment: Cell viability assay (Promega CellTiter-Glo), inhibitory effect on MDA-MB-453; conditions: Homo sapiens, 72 h, 3 days of culture
Method: as §1, §2, §3
Cell line MDA-MB-453 (ATCC, No. HTB-131) was cultured in 10% fetal bovine serum-containing Leibovitz's L-15 medium (+P/S).

[5] = system: CFPAC-1 (human pancreatic cancer cell); experiment: Cell viability assay (Promega CellTiter-Glo), inhibitory effect on CFPAC-1; conditions: 72 h, 3 days of culture
Method: as §1, §2, §3
Cell line CFPAC-1 (ATCC, No. CRL-1918) was cultured in 10% fetal bovine serum-containing IMDM medium (+P/S).

[6] = system: 786-O (clear cell renal cell adenocarcinoma cell); experiment: Cell viability assay (Promega CellTiter-Glo), inhibitory effect on 786-O; conditions: Homo sapiens, 786-0, 72 h, 3 days of culture
Method: as §1, §2, §3
Cell line 786-0 (ATCC, No. CRL-1932) was cultured in 10% fetal bovine serum-containing RPMI1640 medium (+P/S).

[7] = system: SF126 (human glioblastoma multiforme cell); experiment: Cell viability assay (Promega CellTiter-Glo), inhibitory effect on SF126
Method: as §1, §2, §3
Cell line SF126 (JCRB, No. IFO50286) was cultured in 10% fetal bovine serum-containing EMEM medium (+P/S).
(§4) The inhibitory effect of the compounds prepared in the Examples of the present invention on various brain tumor cell lines was detected using cell viability assay reagent.
(§5) Cell viability was detected using the Promega CellTiter-Glo kit, cell viability was determined by directly measuring intracellular ATP content. In the experiment, the IC50 value of the compounds prepared in the Examples of the present invention on various brain tumor cell lines was detected.

[8] = system: GB-1 (human brain glioblastoma cell); experiment: Cell viability assay (Promega CellTiter-Glo), inhibitory effect on GB-1; conditions: 72 h, 3 days of culture
Method: as §1, §2, §3
Cell line GB-1 (JCRB, No. IFO50489) was cultured in 10% fetal bovine serum-containing DMEM medium (+P/S).
as §4, §5

[9] = system: Kelly (brain neuroblastoma cell); experiment: Cell viability assay (Promega CellTiter-Glo), inhibitory effect on Kelly; conditions: Homo sapiens, 72 h, 3 days of culture, read-out: inhibitory effect on brain cell line Kelly (IC50)
Method: as §4, §5, §3
Cell line Kelly (ECACC, No. 92110411) was cultured in 10% fetal bovine serum and 2 mM glutamine-containing RPMI1640 medium.

[10] = system: NB-1 (brain neuroblastoma cell); experiment: Cell viability assay (Promega CellTiter-Glo), inhibitory effect on NB-1; conditions: Homo sapiens, 72 h, 3 days of culture, read-out: inhibitory effect on brain cell line NB-1 (IC50)
Method: as §4, §5, §3
Cell line NB-1 (ATCC, No. HTB-131) was cultured in 10% fetal bovine serum-containing Leibovitz's L-15 medium (+P/S).

[11] = system: D341 Med (cerebellar medulloblastoma cell); experiment: Cell viability assay (Promega CellTiter-Glo), inhibitory effect on D341 Med; conditions: Homo sapiens, 72 h, 3 days of culture, read-out: inhibitory effect on brain cell line D341 Med (IC50)
Method: as §4, §5, §3
Cell line D341 Med (ATCC, No. HTB-187) was cultured in 20% fetal bovine serum-containing EMEM medium (+P/S).

[12] = system: Con-NCI-H82 cell (NCI-H82 transfected with empty virus vector); experiment: Cell viability assay (Promega CellTiter-Glo), inhibitory effect on Con-NCI-H82 cell; conditions: Homo sapiens; NCI-H82 transfected with empty virus vector (control); CellTiter-Glo; read-out: inhibitory effect on Con-NCI-H82 (IC50)
Method: (§6) The role of expression level of NNMT gene and DNMT1 in the sensitivity of NCI-H82 cell to the compounds prepared in the Examples of the present invention was determined
(§7) The expression of NNMT protein in NCI-H82 cell was overexpressed by inserting the NNMT gene into NCI-H82 cell using a viral vector, and the NNMT protein-overexpressing NCI-H82 cell (ov-NNMT NCI-H82 cell) was obtained. The expression of DNMT1 in NCI-H82 cell was knocked down transfecting (the by shRNA nucleotide sequence of shRNA was […] TTTTTG (SEQ ID No: 2)) using a viral vector, and the NCI-H82 cell with low expression of DNMT1 protein (sh-DNMT1 NCI-H82 cell) was obtained. The control NCI-H82 cell (Con-NCI-H82 cell) was obtained by transfecting NCI-H82 cell with empty virus vector without carrying NNMT gene and shRNA. The expressing content of NNMT protein and DNMT1 protein in the Con-NCI-H82 cell, the expressing content of NNMT protein in the ov-NNMT NCI-H82 cell, and the expressing content of DNMT1 protein in the sh-DNMT1 NCI-H82 cell were detected using Western Blot assay (as shown in FIG. 15 and FIG. 16), it could be seen from FIG. 15 and FIG. 16 that the NNMT protein was overexpressed in the ov-NNMT NCI-H82 cell and the expression of DNMT1 protein was knocked down (i.e, low expression) in the sh-DNMT1 NCI-H82 cell compared with the expression level of NNMT protein and DNMT protein in the Con-NCI-H82 cell.

[13] = system: ov-NNMT NCI-H82 cell (NNMT protein-overexpressing NCI-H82); experiment: Cell viability assay (Promega CellTiter-Glo), inhibitory effect on ov-NNMT NCI-H82 cell; conditions: Homo sapiens
Method: as §6, §7

[14] = system: sh-DNMT1 NCI-H82 cell (DNMT1 knocked down NCI-H82); experiment: Cell viability assay (Promega CellTiter-Glo), inhibitory effect on sh-DNMT1 NCI-H82 cell; conditions: Homo sapiens, NCI-H82 with DNMT1 knocked down by shRNA
Method: as §6, §7

[15] = 72 h, SF-126, 3 days of culture, Table 3, read-out: inhibitory effect on SF-126 (IC50)
[16] = SF-126, 72 h, SF126, 3 days of culture, Table 4, read-out: inhibitory effect on brain cell line SF126 (IC50)
[17] = Table 3, read-out: inhibitory effect on GB-1 (IC50)
[18] = Table 4, read-out: inhibitory effect on brain cell line GB-1 (IC50)

Structure (SMILES) | IC50 [1] [µM] | IC50 [2] [µM] | IC50 [3] [µM] | IC50 [4] [µM] | IC50 [5] [µM] | IC50 [6] [µM] | IC50 [7, 15] [µM] | IC50 [7, 16] [µM] | IC50 [8, 17] [µM] | IC50 [8, 18] [µM] | IC50 [9] [µM] | IC50 [10] [µM] | IC50 [11] [µM] | IC50 [12] [µM] | IC50 [13] [µM] | IC50 [14] [µM]
CCc1c2c(OC)c(OC)ccc2cc2[n+]1CCc1cc3c(cc1-2)OCO3 [compound AB31706] | 1.48 | 1.24 | 1.12 | 0.62 | 21.9 | 16.6 | 6.49 | 6.49 | 12.9 | 12.9 | 1.51 | 0.3 | 1.18 | 1.48 | 3.15 | 4.64
CCCCc1c2c(OC)c(OC)ccc2cc2[n+]1CCc1cc3c(cc1-2)OCO3 [compound AB31707] | 1.17 | 1.42 | 1.12 | 0.62 | 13.1 | 7.63 | 10.2 | 10.2 | 8.27 | 8.27 | 1.24 | 0.29 | 1.37 | 1.17 | 2.96 | 3.41
CCCCc1c2c(OC)c(OC)cc(Br)c2cc2[n+]1CCc1cc3c(cc1-2)OCO3 [compound AB31711] | 0.65 | 0.82 | 0.72 | 0.5 | 9.47 | 3.97 | 5.21 | 5.21 | 5.32 | 5.32 | 0.88 | 0.24 | 0.92 | 0.65 | 1.43 | 1.9
COc1ccc2cc3[n+](cc2c1OCCCCOc1ccccc1)CCc1cc2c(cc1-3)OCO2 [compound AB31718] | 0.29 | 0.25 | 0.37 | 0.09 | 5.29 | 2.69 | 4.25 | 4.25 | 3.41 | 3.41 | 0.66 | 0.02 | 0.18 | 0.29 | 0.68 | 1.36
COc1ccc2cc3[n+](cc2c1OCCCBr)CCc1cc2c(cc1-3)OCO2 [compound AB31721] | 0.4 | 0.8 | 1.38 | 0.43 | 7.17 | 9.16 | 10.8 | 10.8 | 10.1 | 10.1 | 1.26 | 0.14 | 0.36 | 0.4 | 0.92 | 1.31
CCC(CC)C(=O)Oc1c(OC)ccc2cc3[n+](cc12)CCc1cc2c(cc1-3)OCO2 [compound AB31722] | 2.81 | 2.06 | 3.94 | 1.41 | 24.4 | 26.2 | 20.6 | 20.6 | 40.5 | 40.5 | 2.52 | 0.98 | 2.89 | 2.81 | 5.98 | 8.93
COc1ccc2cc3[n+](cc2c1OCCCCCCCl)CCc1cc2c(cc1-3)OCO2 [compound AB31731] | 0.52 | 0.62 | 0.77 | 0.22 | 8.98 | 3.76 | 6.19 | 6.19 | 6.64 | 6.64 | 0.86 | 0.07 | 0.34 | 0.52 | 1.32 | 1.66
